In ChEMBL document CHEMBL6127107, “Oleanolic acid derivatives against drug-resistant bacteria and fungi by multi-targets to avoid drug resistance” (Eur J Med Chem, 2024):
Values after ≈ are worked out from the molar mass of the structure shown.

Assays:
Candida albicans = assay: Antimicrobial activity against fluconazole-resistant Candida albicans; type: functional
[1] = Hemolytic activity against Mianyang red blood cells (unknown origin); type: toxicity, cell-based, RBC
[2] = Selectivity index, ratio of HC50 for hemolytic activity against Mianyang red blood cells (unknown origin) to MIC for antimicrobial activity against methicillin resistant Staphylococcus aureus 003; type: toxicity, cell-based, RBC; details: read-out: Selectivity Index
Staphylococcus aureus [3] = assay: Antimicrobial activity against methicillin-resistant Staphylococcus aureus 003; type: functional
Enterococcus faecalis = assay: Antimicrobial activity against vancomycin resistant Enterococcus faecalis ATCC 51299; type: functional
Staphylococcus aureus [4] = assay: Antimicrobial activity against methicillin-resistant Staphylococcus aureus 011; type: functional
Staphylococcus aureus [5] = assay: Antimicrobial activity against Staphylococcus aureus 29; type: functional
Staphylococcus aureus [6] = assay: Antimicrobial activity against Staphylococcus aureus 31; type: functional
Staphylococcus aureus [7] = assay: Antimicrobial activity against Staphylococcus aureus 10; type: functional
Pseudomonas aeruginosa = assay: Antimicrobial activity against Pseudomonas aeruginosa; type: functional
Escherichia coli = assay: Antimicrobial activity against Escherichia coli; type: functional

| SMILES | MIC (Candida albicans) | HC50 [1] | selectivity ratio [2] | MIC (Staphylococcus aureus [3]) | MIC (Enterococcus faecalis) | MIC (Staphylococcus aureus [4]) | MIC (Staphylococcus aureus [5]) | MIC (Staphylococcus aureus [6]) | MIC (Staphylococcus aureus [7]) | MIC (Pseudomonas aeruginosa) | MIC (Escherichia coli) |
| --- | --- | --- | --- | --- | --- | --- | --- | --- | --- | --- | --- |
| OC(Cn1cncn1)(Cn1cncn1)c1ccc(F)cc1F [FLUCONAZOLE] | > 128 µg/mL | > 256 µg/mL |  |  |  |  |  |  |  |  |  |
| C[C@@H]1[C@H](O)[C@@H](C)/C=C/C=C/C=C/C=C/C=C/C=C/C=C/[C@H](O[C@@H]2O[C@H](C)[C@@H](O)[C@H](N)[C@@H]2O)C[C@@H]2O[C@](O)(C[C@@H](O)C[C@@H](O)[C@H](O)CC[C@@H](O)C[C@@H](O)CC(=O)O[C@H]1C)C[C@H](O)[C@H]2C(=O)O [AMPHOTERICIN B] | 1 µg/mL (≈ 1.08 µM) | 29.2 µg/mL | 29.2 |  |  |  |  |  |  |  |  |
| CC1(C)CC[C@]2(C(=O)O)CC[C@]3(C)C(=CC[C@@H]4[C@@]5(C)CC[C@H](OCC(O)CCCCNC(=N)N)C(C)(C)[C@@H]5CC[C@]43C)[C@@H]2C1 (stereo partly specified) | 4 µg/mL (≈ 6.52 µM) | 660 µg/mL | 330 | 2 µg/mL (≈ 3.26 µM) | 4 µg/mL (≈ 6.52 µM) | 2 µg/mL (≈ 3.26 µM) | 8 µg/mL (≈ 13 µM) | 8 µg/mL (≈ 13 µM) | 8 µg/mL (≈ 13 µM) | > 64 µg/mL | > 64 µg/mL |
| CC1(C)CC[C@]2(C(=O)O)CC[C@]3(C)C(=CC[C@@H]4[C@@]5(C)CC[C@H](OC(=O)CCC(=O)O)C(C)(C)[C@@H]5CC[C@]43C)[C@@H]2C1 [OLEANOLIC ACID 3-O-SUCCINATE] | 32 µg/mL (≈ 57.5 µM) | > 1020 µg/mL | > 64 | 16 µg/mL (≈ 28.7 µM) | 32 µg/mL (≈ 57.5 µM) | 16 µg/mL (≈ 28.7 µM) | 8 µg/mL (≈ 14.4 µM) | 32 µg/mL (≈ 57.5 µM) | 16 µg/mL (≈ 28.7 µM) | > 64 µg/mL | > 64 µg/mL |
| CC1(C)CC[C@]2(C(=O)O)CC[C@]3(C)C(=CC[C@@H]4[C@@]5(C)CC[C@H](OC(=O)c6ccccc6C(=O)O)C(C)(C)[C@@H]5CC[C@]43C)[C@@H]2C1 | 8 µg/mL (≈ 13.2 µM) | > 1020 µg/mL | > 32 | 32 µg/mL (≈ 52.9 µM) | 16 µg/mL (≈ 26.5 µM) | 32 µg/mL (≈ 52.9 µM) | 32 µg/mL (≈ 52.9 µM) | 64 µg/mL (≈ 106 µM) | 16 µg/mL (≈ 26.5 µM) | > 64 µg/mL | > 64 µg/mL |
| CC1(C)S[C@@H]2[C@H](NC(=O)[C@H](N)c3ccccc3)C(=O)N2[C@H]1C(=O)O [AMPICILLIN] |  | > 256 µg/mL |  | > 128 µg/mL | 2 µg/mL (≈ 5.72 µM) | > 128 µg/mL | 2 µg/mL (≈ 5.72 µM) | 2 µg/mL (≈ 5.72 µM) | 2 µg/mL (≈ 5.72 µM) |  |  |
| CC(=O)O[C@H]1CC[C@]2(C)[C@H]3CC=C4[C@@H]5CC(C)(C)CC[C@]5(C(=O)NCCCCCCCCN)CC[C@@]4(C)[C@]3(C)CC[C@H]2C1(C)C | 64 µg/mL (≈ 102 µM) | 40.2 µg/mL | 7.53 | 8 µg/mL (≈ 12.8 µM) | 16 µg/mL (≈ 25.6 µM) | 4 µg/mL (≈ 6.4 µM) | 8 µg/mL (≈ 12.8 µM) | 32 µg/mL (≈ 51.2 µM) | 8 µg/mL (≈ 12.8 µM) | > 64 µg/mL | > 64 µg/mL |
| CC1(C)CC[C@]2(C(=O)O)CC[C@]3(C)C(=CC[C@@H]4[C@@]5(C)CC[C@H](OCC(O)CCCCCCCCN)C(C)(C)[C@@H]5CC[C@]43C)[C@@H]2C1 (stereo partly specified) | 32 µg/mL (≈ 51 µM) | 25.2 µg/mL | 3.15 | 8 µg/mL (≈ 12.7 µM) | 16 µg/mL (≈ 25.5 µM) | 8 µg/mL (≈ 12.7 µM) | 8 µg/mL (≈ 12.7 µM) | 32 µg/mL (≈ 51 µM) | 8 µg/mL (≈ 12.7 µM) | > 64 µg/mL | > 64 µg/mL |
| CC1(C)CC[C@]2(C(=O)O)CC[C@]3(C)C(=CC[C@@H]4[C@@]5(C)CC[C@H](OCC(O)CCCN)C(C)(C)[C@@H]5CC[C@]43C)[C@@H]2C1 (stereo partly specified) | 4 µg/mL (≈ 7.17 µM) | 32 µg/mL | 8.01 | 4 µg/mL (≈ 7.17 µM) | 8 µg/mL (≈ 14.3 µM) | 2 µg/mL (≈ 3.59 µM) | 2 µg/mL (≈ 3.59 µM) | 8 µg/mL (≈ 14.3 µM) | 4 µg/mL (≈ 7.17 µM) | > 64 µg/mL | > 64 µg/mL |
| CN(C)CC(O)CO[C@H]1CC[C@]2(C)[C@H]3CC=C4[C@@H]5CC(C)(C)CC[C@]5(C(=O)O)CC[C@@]4(C)[C@]3(C)CC[C@H]2C1(C)C (stereo partly specified) | > 64 µg/mL |  |  | > 64 µg/mL | > 64 µg/mL | > 64 µg/mL | > 64 µg/mL | > 64 µg/mL | > 64 µg/mL | > 64 µg/mL | > 64 µg/mL |
| CCCCC(=O)O[C@H]1CC[C@]2(C)[C@H]3CC=C4[C@@H]5CC(C)(C)CC[C@]5(C(=O)O)CC[C@@]4(C)[C@]3(C)CC[C@H]2C1(C)C | > 64 µg/mL |  |  | > 64 µg/mL | > 64 µg/mL | > 64 µg/mL | > 64 µg/mL | > 64 µg/mL | > 64 µg/mL | > 64 µg/mL | > 64 µg/mL |
| CCNC(=O)[C@]12CCC(C)(C)C[C@H]1C1=CC[C@@H]3[C@@]4(C)CC[C@H](OC(C)=O)C(C)(C)[C@@H]4CC[C@@]3(C)[C@]1(C)CC2 | > 64 µg/mL |  |  | > 64 µg/mL | > 64 µg/mL | > 64 µg/mL | > 64 µg/mL | > 64 µg/mL | > 64 µg/mL | > 64 µg/mL | > 64 µg/mL |
| CC(=O)O[C@H]1CC[C@]2(C)[C@H]3CC=C4[C@@H]5CC(C)(C)CC[C@]5(C(=O)NCCCCN)CC[C@@]4(C)[C@]3(C)CC[C@H]2C1(C)C | 4 µg/mL (≈ 7.03 µM) | 65.8 µg/mL | 16.5 | 4 µg/mL (≈ 7.03 µM) | 4 µg/mL (≈ 7.03 µM) | 2 µg/mL (≈ 3.52 µM) | 8 µg/mL (≈ 14.1 µM) | 8 µg/mL (≈ 14.1 µM) | 8 µg/mL (≈ 14.1 µM) | > 64 µg/mL | > 64 µg/mL |
| CC(=O)O[C@H]1CC[C@]2(C)[C@H]3CC=C4[C@@H]5CC(C)(C)CC[C@]5(C(=O)NCc5ccc(F)cc5)CC[C@@]4(C)[C@]3(C)CC[C@H]2C1(C)C | > 64 µg/mL |  |  | > 64 µg/mL | > 64 µg/mL | > 64 µg/mL | > 64 µg/mL | > 64 µg/mL | > 64 µg/mL | > 64 µg/mL | > 64 µg/mL |
| CC1(C)CC[C@]2(C(=O)O)CC[C@]3(C)C(=CC[C@@H]4[C@@]5(C)CC[C@H](O)C(C)(C)[C@@H]5CC[C@]43C)[C@@H]2C1 [OLEANOLIC_ACID] | > 64 µg/mL | > 1020 µg/mL | > 16 | 64 µg/mL (≈ 140 µM) | 64 µg/mL (≈ 140 µM) | > 64 µg/mL | 64 µg/mL (≈ 140 µM) | 32 µg/mL (≈ 70.1 µM) | 64 µg/mL (≈ 140 µM) |  |  |
| CCCCCCCCCOC(=O)[C@]12CCC(C)(C)C[C@H]1C1=CC[C@@H]3[C@@]4(C)CC[C@H](O)C(C)(C)[C@@H]4CC[C@@]3(C)[C@]1(C)CC2 | > 64 µg/mL |  |  | > 64 µg/mL | > 64 µg/mL | > 64 µg/mL | > 64 µg/mL | > 64 µg/mL | > 64 µg/mL | > 64 µg/mL | > 64 µg/mL |
| CCCCCCCCCCCCC(=O)O[C@H]1CC[C@]2(C)[C@H]3CC=C4[C@@H]5CC(C)(C)CC[C@]5(C(=O)O)CC[C@@]4(C)[C@]3(C)CC[C@H]2C1(C)C | > 64 µg/mL |  |  | > 64 µg/mL | > 64 µg/mL | > 64 µg/mL | > 64 µg/mL | > 64 µg/mL | > 64 µg/mL | > 64 µg/mL | > 64 µg/mL |
| CC(=O)O[C@H]1CC[C@]2(C)[C@H]3CC=C4[C@@H]5CC(C)(C)CC[C@]5(C(=O)NCc5ccoc5)CC[C@@]4(C)[C@]3(C)CC[C@H]2C1(C)C | > 64 µg/mL |  |  | > 64 µg/mL | > 64 µg/mL | > 64 µg/mL | > 64 µg/mL | > 64 µg/mL | > 64 µg/mL | > 64 µg/mL | > 64 µg/mL |
